In a melting point compilation (Tetko et al.; mined from patent text by program, amines drawn as free bases though some values may be those of a salt):

Row | Structure (SMILES) | melting point
1 | Nc1nnc(-c2ccc3ncn(-c4ccc(OC(F)(F)F)c(Cl)c4)c3c2)o1 | 238 to 239 °C
2 | OCc1cnc(Cl)c(Cl)c1 | 72 to 75 °C
3 | CCOc1nc2ncnn2c2c1cnc1c2cnn1CC | 196 to 197 °C
4 | Cc1ncc2ccc(-c3cccs3)nc2n1 | 175 to 180 °C
5 | OCCC1=Cc2ccccc2C1 | 47 to 49 °C
6 | Cc1ccc2[nH]c(C(=O)O)cc2c1O | 262 °C
7 | CCCCCCCCCCCCCCCCCCNC(=O)c1ccccc1N | 89 to 90 °C
8 | O=c1ccsn1CNc1ccc(Cl)c(Cl)c1 | 120 to 122 °C
9 | Cc1c(C)n(Cc2ccccc2)c(=O)[nH]c1=O | 187 to 189 °C
10 | CCn1c(CCl)nc2c([N+](=O)[O-])cc(Br)cc21 | 154 to 155 °C
11 | CC(C)OP(=O)(CNc1cc(Oc2ccc(C(F)(F)F)cc2Cl)ccc1[N+](=O)[O-])OC(C)C | 93 to 94 °C
12 | Cc1ccc(S(=O)(=O)C2(CC#Cc3ccc(Cl)cc3)SC(=O)NC2=O)cc1 (configuration not stated) | 172 to 174 °C
13 | O=S1(=O)N(CCCN2CC=C(c3ccccc3)CC2)c2cccc3c2N1CCC3 | 120 °C
14 | CCCCCN1C(=O)C2(COc3cc4c(cc32)OCO4)c2c(C#N)cccc21 (configuration not stated) | 128 to 129 °C
15 | CCNCCNC(=O)c1ccnc(F)c1 | 51 to 52 °C
16 | CCS(=O)(=O)c1ccc(S(=O)(=O)CC)nc1 | 148 to 150 °C
17 | Cc1c(C(=O)O)nc2c(=O)[nH]c3cc(C(F)(F)F)ccc3n12 | > 250 °C

Row | Structure (SMILES) | melting point
18 | O=C(Nc1nc(C(Cl)(Cl)Cl)ns1)c1ccc([N+](=O)[O-])cc1 | 214 °C
19 | CCCc1nc2c(N)nc3c(c2n1CC(C)(C)OCCS(C)(=O)=O)CCCC3 | 188 to 190 °C
20 | Cn1c(C#N)ccc1CC(=O)O | 125 to 126 °C
21 | O=C(c1ccc2nonc2c1)N1C2CCC1CC(F)(F)C2 | 165 to 166 °C
22 | CCCc1nc2c(N)nc3ccc(-c4ccc(F)cc4CN)cc3c2s1 | 198 to 201 °C
23 | OC1(Cn2cncn2)C(Cc2ccc(F)cc2)CCC12CC2 (configuration not stated) | 89 to 90 °C
24 | CC(C)COC(=O)Nc1ccc(Br)cc1 | 95 to 96 °C
25 | CS(=O)c1cn(-c2c(Cl)cc(C(F)(F)F)cc2Cl)nc1C=NO (configuration not stated) | 239 to 240 °C
26 | COc1ccc(S(=O)O)cc1 | 173 to 174 °C
27 | Cc1ccc(NC#N)c(-c2ccccc2)c1 | 80 °C
28 | OC(CCCl)COc1ccccc1 (configuration not stated) | 52 to 54 °C
29 | CN1C(=O)c2ccccc2C2(CC(=O)NC2=O)C1=O (configuration not stated) | 224 to 225 °C
30 | CC(=O)Sc1ccc(C#C[Si](C)(C)C)cc1 | 45 to 47 °C
31 | COC(=O)C=CC1C(C(=O)OC(C)(C)C)C1(C)C (configuration not stated) | 67 °C
32 | Cc1cc(Oc2ncc(C(F)(F)F)cc2Cl)n[nH]1 | 93 to 95 °C
33 | N#CC1C(=O)NC(=O)C12C(=O)N(Cc1ccc(Br)cc1F)c1ccccc12 (configuration not stated) | 208 to 210 °C

Next, values leading:

Row | melting point | Structure (SMILES)
34 | 237 to 241 °C | Cc1ccccc1CCNC(=O)c1c(Cl)ccc2nc(N3CCC(C(=O)O)CC3)ccc12
35 | 102 to 104 °C | COc1ccc(CN(CCN(C)CCNC(=C[N+](=O)[O-])NCCCOc2cccc(CN3CCCCC3)c2)c2ccccn2)cc1
36 | 73.5 to 76.2 °C | COc1ccc(CCC(=O)CC(=O)CCc2ccc(OC)cc2)cc1
37 | 243 to 245 °C | Cn1c(COCCn2cnc3c(N)nc4ccccc4c32)cc2ccccc21
38 | 82 °C | CCN(CC)C(=O)COc1cc(-c2ccccc2)cc2ccccc12
39 | > 250 °C | CC(=O)Nc1cccc(/C=C/C(=O)N2CC(CCl)c3c2cc(N)c2ccccc32)c1 (configuration not stated)
40 | 244 °C | COc1ccc(-c2nc(N)c(C#N)nc2-c2ccc(=O)n(C(C)C)c2)cc1
41 | 248 °C | COc1ccc(-c2[nH]nc3c2C(=O)c2c(NC(=O)NNC(=O)c4ccncc4)cccc2-3)cc1
42 | 78 to 79 °C | CCOC(=O)C(C)(C)Oc1ccc(CNc2ccccn2)cc1
43 | 99 to 101 °C | O=C(Nc1ccc(C2CCC(O)C2)cc1)OCc1ccccc1 (configuration not stated)
44 | 86 to 93 °C | N=C(Cc1ccc(F)cc1)Nc1ncccc1OCc1ccccc1
45 | 94 to 96 °C | CCN1c2ncc(CCc3ccnc(C)c3)cc2C(=O)N(C)c2ccc(Cl)nc21
46 | 115 to 119 °C | CCOC(=O)N1CCC2(CC1)OC(c1ccccc1)c1ccccc12 (configuration not stated)
47 | 154 to 157 °C | COc1ccc2[nH]cc(SCCN=C3CCCN3C)c2c1
48 | 82 to 84 °C | COc1ccc2cc([C@H](C)C(=O)OCCNC(=O)OC(C)(C)C)ccc2c1
49 | 193 to 201 °C | N#Cc1cc([N+](=O)[O-])ccc1C=C1C=CN(Cc2ccccc2[N+](=O)[O-])C=C1
50 | 165 °C | Cn1cc(-c2cc(-c3ccc4[nH]ncc4c3)ccn2)n(-c2ccc(C(C)(C)C#N)cc2)c1=O
51 | 246 to 247 °C | CN(C)CCNC1=CC(=O)c2nc(-c3ccc(F)cc3)sc2C1=O
52 | 160 °C | COc1ccc(C2COc3cc(O)c(O)cc3C2)cc1 (configuration not stated)
53 | 211 to 213 °C | CNc1ncc2c(n1)N(c1ccccc1)C(=O)N(c1c(Cl)cccc1Cl)C2

Row | melting point | Structure (SMILES)
54 | 190 to 195 °C | COC(=O)c1ccc(CNC(=NC#N)NCCNC(=O)c2nc(Cl)c(N)nc2N)cc1
55 | 145 to 146 °C | COc1ccc(C(=C/C=C/C(=O)NCCCCc2cccnc2)c2ccc(OC)c(OC)c2)cc1OC
56 | 85.4 to 86 °C | COCCOCn1c2ccccc2c2c(C)c(C(=O)OC)sc21
57 | 153 to 156 °C | O=C(O)c1cccc(Oc2cccc(-c3nn(Cc4ccc(C(F)(F)P(=O)(O)O)c(F)c4)c(=Nc4ccc(Cl)c(Cl)c4)s3)c2)c1
58 | 210 to 215 °C | CCOC(=O)C(C)(C)Oc1ccc2c(c1)C=C(c1nccn1C)CO2
59 | 177 to 178 °C | CC(=O)Oc1ccc(C=CC(=O)NC2CCc3ccccc32)cc1[N+](=O)[O-] (configuration not stated)
60 | 173 to 174 °C | Cc1sc(-c2ccccc2)nc1COc1ccc(COc2ccccc2CC(=O)O)cn1
61 | 129 to 130 °C | CC(C)(C)OC(=O)N1CCCN(c2cncc(-c3cccc([N+](=O)[O-])c3)c2)CC1
62 | 132 to 134 °C | COC(=O)C(O)=Cc1ncc(Cc2ccc(F)cc2)cn1
63 | 189 to 190 °C | CCOC(=O)CNC(=S)NC(=Nc1ccc([N+](=O)[O-])cc1)c1ccccc1
64 | 162 to 164 °C | COc1cc(OC)c(NC(=O)Nc2ccccc2)cc1O
65 | 183 to 186 °C | Cc1c(CC(=O)NOCc2ccccc2)c2cc(OCc3nc4ccccc4s3)ccc2n1Cc1ccc(Cl)cc1
66 | 204 °C | N#Cc1c(N2CCN(C(=O)c3cccs3)CC2)c2cc(Cl)cnc2n(Cc2cccc(F)c2)c1=O
67 | 188 °C | Cc1cc2c(cc1C(F)(F)F)NC(=O)CC(c1cccc(-c3ccnc(CN(C)CC(C)C)c3)c1)=N2
68 | 158 to 159 °C | CCSc1cn(-c2ccccn2)c2c1C(=O)CC(C)(C)C2
69 | 160 to 162 °C | COc1ccc(/C=C/C(=O)C2C(=O)CC(c3ccc(OC)cc3)C([N+](=O)[O-])C2c2cccs2)cc1 (configuration not stated)
70 | > 300 °C | O=[N+]([O-])c1ccc2ncnc(Nc3ccc4ncccc4c3)c2c1
71 | 138 to 140 °C | COC(=O)CCCC#Cc1cc(Cl)ccc1NS(=O)(=O)c1ccc2nc(NC(C)=O)sc2c1
72 | 188 to 190 °C | COc1cc(C(=O)O)ccc1OCc1cccc(OCc2ccc3ccccc3n2)c1
